The source of these data is PMC8765435, “In Vitro Antimalarial Activity of Inhibitors of the Human GTPase Rac1” (Antimicrobial Agents and Chemotherapy, 2022).

Some results are limits rather than exact numbers.

Data set [1] has as its system P. falciparum asexual parasites, chloroquine-resistant W2 strain. Put plainly: Drug susceptibility assay (pLDH), asexual parasites, W2 strain. It counts as cell-based, Plasmodium falciparum. The note with it: Plasmodium falciparum, W2, chloroquine-resistant W2 strain; read-out: IC50, W2 strain. The protocol:
(§1) Chloroquine (CQ)-sensitive (D10, wild-type 3D7, or transgenic 3D7elo1-pfs16-CBG99) and CQ-resistant (W2) strains of P. falciparum were cultured as described previously ([58]), with slight modifications, as detailed in the supplemental material.
(§2) Asexual parasite growth was determined spectrophotometrically (optical density at 650 nm [OD650]) by measuring the activity of parasite lactate dehydrogenase (pLDH), according to a modified version of the method of Makler et al. ([59]). Gametocyte viability was measured by a luminescence method described previously ([60]). Details for the two methods are reported in the supplemental material. From either the OD or ALU (arbitrary luminescence units), the percentages of viability were calculated according to the formula 100 × (treated sample signal − blank signal)/(untreated control signal − blank signal). The blank for the pLDH assay was uninfected RBCs at the same hematocrit as that of parasitized RBCs, and the blank for the luminescence assay was parasites treated with a high dose of methylene blue. […]
(§3) The CQ-sensitive (D10) and the CQ-resistant (W2) strains were maintained at 5% hematocrit […]
(§4) supplemented with 1% AlbuMaxII (lipid-rich bovine serum albumin) (Invitrogen), 0.01% hypoxantine (Sigma), 20mM Hepes (EuroClone), 2 mM glutamine (EuroClone). […]
(§5) In vitro P. falciparum drug susceptibility assay […]
(§6) plate were transferred to a plate containing 100µl of Malstat reagent (0.11% [vol/vol] Triton- […]
(§7) dinucleotide [APAD] [Sigma-Aldrich], adjusted to pH 9 with 1 M HCl) and 25 µl of PES/NBT […]
(§8) pLDHassay. The plate was read at a wavelength of 650 nm using a microplate reader, Synergy4 […]
(§9) Uninfected RBC at the same HCT than parasites were used as blank. […]

Data set [2] deals with Rac1. Also noted: method as in PMID 22383527. The note with it: Rac1 activity in MDA-MB-435 melanoma cells; cited from earlier work.
The subject of the next data set is 3D7 mature gametocytes. Put plainly: Gametocyte viability luminescence assay, mature gametocytes. In kind it is cell-based, Plasmodium falciparum. The note with it: Plasmodium falciparum, 3D7; stage V gametocytes, 72 h, luminescence; read-out: Mean IC50 ± SD, 3D7 mature gametocytes. As for the experimental part:
as §1, §2
strain (wild type or transgenic 3D7elo1-pfs16-CBG99 strain) was cultured in similar conditions, except for 10% naturally clotted Human O+ serum instead of AlbuMaxII and human type O-positive instead of A-positive RBCs. […]
in a standard gas mixture consisting of 1% O2, 5% CO2, 94% N2. Immature (stage II-III) and mature (stage V) gametocytes were obtained as described1. Briefly, cultures were diluted to 0.5% parasitemia at 5% HCT, and the medium was changed daily until parasites were stressed by nutrient deprivation. N-acetylglucosamine (NAG) (Sigma-Aldrich) 50 mM was then added to clear residual asexual parasites: Stage II and III gametocytes were obtained 4 days after NAG addition to the culture, while stage IV and V gametocytes were used 11 to 13 days from NAG addition. Gametocyte stages were routinely checked on Giemsa-stained smears. […]
Drug treated gametocyte cultures were transferred to 96-well black microplates and D-luciferin (1 mM in citrate buffer 0.1 M, pH 5.5) was added at a 1:1 volume ratio. Luminescence measurements were performed after 10 min with 500 ms integration time. Gametocytes treated

On the set-up of data set [3]: method as in PMID 25389450, PMID 25594952. The note with it: mice, orally, 25 mg/kg three times a week for 55 days; cited from earlier work.
Data set [4] deals with P. falciparum W2 asexual parasites. Put plainly: Association experiments (isobologram), W2 parasites. In kind it is cell-based, Plasmodium falciparum. The note with it: in combination with 1A116, W2 parasites. As for the experimental part:
The effect of 1A116 on the IC50 of EHop-016 was determined by potentiation tests as previously described ([62]). Isobolograms were created by plotting a pair of fractional IC50s for each combination of EHop-016 and 1A116. […] The corresponding 1A116 fractional IC50s were calculated by dividing each fixed concentration by the IC50 of 1A116 alone and plotted on the vertical axis.

Data set [5] has as its system human mammary epithelial cells. Details: method as in PMID 25389450, PMID 25594952. The note with it: at concentrations lower than 5 μM; cited from earlier work.
In data set [6] the test system is P. falciparum asexual parasites, chloroquine-sensitive D10 strain. Put plainly: Drug susceptibility assay (pLDH), asexual parasites, D10 strain. In kind it is cell-based, Plasmodium falciparum. The note with it: Plasmodium falciparum, D10, chloroquine-sensitive D10 strain; read-out: IC50, D10 strain. As for the experimental part: as §1, §2, §3, §4, §5, §6, §7, §8, §9

The target of data set [7] is Rac1 (Homo sapiens, UniProt P63000). Put plainly: Immunofluorescence assay with anti-Rac1/GTP on parasitophorous vacuole. It counts as cell-based. Also noted: endogenous in cells; host or cells: erythrocytes from whole blood of 7 donors. The note with it: 1.4 μM, 20 h. As for the experimental part: We thus decided to investigate the Rac1 activation state in infected erythrocytes treated with EHop-016 and in the untreated control. To do this, we applied a methodology that allows us to specifically measure Rac1 activation levels on the parasitophorous vacuole. Freshly invaded erythrocytes were thus exposed to 1.4 μM EHop-016 treatment for 20 h and then smeared and analyzed by an immunofluorescence assay (IFA) with an antibody that specifically recognizes Rac1 in its active form (anti-Rac1/GTP). The resulting fluorescence signal was measured both in the EHop-016-treated sample and in the untreated control.
Cytotoxicity was evaluated on Human Microvascular Endothelial Cells (HMEC-1) maintained in MCDB-131 medium supplemented with 10% foetal calf serum (Euroclone), 20mM HEPES and 2 mM L-glutamine. […]
Immuno-fluorescence assay
Synchronous mature schizonts were purified by 60% Percoll gradient and allowed to invade fresh human RBCs for two hours. […] Negative controls without primary antibodies have been performed, resulting in complete absence of fluorescence s ignals. Anti-Rac1/GTP fluorescence signal was measured by using the software ImageJ (the parasitophorous vacuole area was delimited based on the anti-Exp1 signal). At least 40 cells were analyzed in each sample.

As a reminder, the IC50 is the midpoint of a concentration-inhibition curve. Consider `CCn1c2ccccc2c2cc(Nc3ccnc(NCCCN4CCOCC4)n3)ccc21` [EHop-016], for which the IC50 in data set [1] was 0.322 ± 0.0285 µM; in the data set with Rac1 [2] it was 1.1 µM; in the data set with 3D7 mature gametocytes, 4.65 ± 0.52 µM; in data set [6], 0.139 ± 0.016 µM. Moreover, the “changes in weight or behavior” value in data set [3] is “did not cause any significant changes in weight or behavior”. In data set [4], the “effect of combination (isobologram analysis)” value is listed as “additive effect”. In addition, the “fractional inhibitory concentration (FIC)” value in data set [4] is < 2. For the same compound, the “viability of human mammary epithelial cells” value in data set [5] was “does not affect the viability”. Also, the “anti-Rac1/GTP fluorescence intensity of parasitophorous vacuoles vs untreated control” value at Rac1 [7] is listed as “significantly lower”.
